For data set [1] the following is noted: mice, 1 h after 5 mg/kg i.p.; previously reported data ref 7; cited from earlier work.
The conditions of data set [2]: cited from earlier work.
For data set [3] the following is noted: cited from earlier work. The source holds these as a separate data set.
Data set [4] addresses K18 tau fragment (amino acids 244–369) bearing the P301L mutation (K18PL) (Homo sapiens, UniProt P10636, P618L). The note with it: 50 μM compound concentration; previously reported data ref 7; cited from earlier work.
The conditions of data set [5]: mouse plasma; previously reported data ref 7; cited from earlier work.
The next data set in a line: in vivo. The note with it: female, mouse, 50 mg/kg/day, Calculated free compound level in brain, mice, 3 days of dosing via drinking water at 50 mg/kg/day.
Data set [6] in a line: Full PK evaluation and oral bioavailability of 43. The format is in vivo, B6C3F1 mice. As to conditions: mice, 5 mg/kg i.p., 0.5–16 h post-dosing.
The nature of data set [7]: Aqueous solubility in the sodium acetate buffer of the fibrillization assay. The format is physicochemical.
Data set [8] has as its system mice. As to conditions: mouse, in vivo, 100 mg/kg.
For data set [9], the system named is mice. As to conditions: mouse, in vivo, 50 mg/kg/day.
The mark [10] stands for this setting: mice, 3 days of dosing via drinking water at 50 mg/kg/day.

The structures appear in SMILES notation. In brackets after ≈: the same amount, converted by molar mass.

K18 tau fragment (amino acids 244–369) bearing the P301L mutation (K18PL), sequence (P10636 561-686 P618L): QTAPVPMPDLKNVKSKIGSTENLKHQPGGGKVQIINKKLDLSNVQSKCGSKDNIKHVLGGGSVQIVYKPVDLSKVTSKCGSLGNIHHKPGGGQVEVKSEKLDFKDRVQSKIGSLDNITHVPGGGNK

For the compound `Nc1scc2c(C(=O)NC3CC3)nn(-c3ccc(Cl)cc3)c(=O)c12` [Compound 1, 5-Amino-3-(4-chlorophenyl)-N-cyclopropyl-4-oxo-3,4-dihydrothieno[3,4-d]pyridazine-1-carboxamide], in [1], the “B/P (fu), ratio of free drug in brain and plasma” value is 0.92 ±0.16; the “B/P (total), brain-to-plasma ratio” value is recorded as 1.61 ± 0.28; the Brain level is 1300 ± 110 ng/g; the Plasma level is given as 820 ± 150 ng/mL. The “Solubility in assay buffer, upper solubility limit” value in data set [2] (sodium acetate fibrillization assay buffer, previously reported data ref 7) was 32 µM (≈ 11.5 µg/mL). For the same compound, the Water solubility in data set [2] (text of introduction) was ~ 30 μM. Further, the “Bound in brain homogenates” value in [3] (equilibrium dialysis) is ~ 99%. The “Fu (%) brain, fraction unbound” value in [3] (mouse brain homogenate, previously reported data ref 7) is recorded as 1.1 ± 0.6%. The “K18PL centrifugation assay % Soluble” value in [4] is listed as 69%. Besides, in [5], the “Fu (%) plasma, fraction unbound” value is reported as 1.9 ± 0.2%.

`Nc1scc2c(C(=O)NC3CC3)nn(-c3ccc(F)cc3)c(=O)c12` [Compound 43, 5-Amino-N-cyclopropyl-3-(4-fluorophenyl)-4-oxo-3,4-dihydrothieno[3,4-d]pyridazine-1-carboxamide]: the concentration at 3 days in the data set “in vivo” is 6 ± 0.4 nM. Further, under setting [10], the “Calculated free compound level in brain” value is recorded as 6 nM and the Total brain levels was ~ 140 nM. Further, the “Plasma and brain levels after 30 days versus 3 days in drinking water” value (mouse, in vivo, 50 mg/kg/day) is “comparable”. In addition, the “Brain exposure” value in [6] is listed as “good brain exposure”. Besides, the solubility in [7] is > 200 µM. The “Signs of toxicity after a single oral administration” value in the data set on mice [8] was “only mild and transient lethargy”. For the same compound, in the data set with mice [9], the “Adverse events” value was “no visible adverse events”, the “Amount of water consumed” value was “normal” and the Blood cell counts result was “no alterations in any blood cell counts”. Also, the “Tolerability” value in the data set with mice [9] (po) is given as “well-tolerated with no notable side-effects”.

What is called solubility is the dissolved amount per volume that the medium holds. A low value points to a poorly soluble substance.

Source of the values: PMC4304654 (Bioorganic & medicinal chemistry, 2012).
